Results on eight molecules are retold here after patent US20020045271A1, “COMPOUNDS AND METHODS FOR IDENTIFYING COMPOUNDS THAT INTERACT WITH MICROSOMAL TRIGLYCERIDE TRANSFER PROTEIN BINDING SITES ON APOLIPOPROTEIN B AND MODULATE LIPID BIOSYNTHESIS” (LICATA AND TYRRELL P.C., priority 1998, published 2002).

Test [1] addresses T1, LDL/MTP binding (Bos taurus, UniProt P55156).
T1 sequence (P55156 12-887): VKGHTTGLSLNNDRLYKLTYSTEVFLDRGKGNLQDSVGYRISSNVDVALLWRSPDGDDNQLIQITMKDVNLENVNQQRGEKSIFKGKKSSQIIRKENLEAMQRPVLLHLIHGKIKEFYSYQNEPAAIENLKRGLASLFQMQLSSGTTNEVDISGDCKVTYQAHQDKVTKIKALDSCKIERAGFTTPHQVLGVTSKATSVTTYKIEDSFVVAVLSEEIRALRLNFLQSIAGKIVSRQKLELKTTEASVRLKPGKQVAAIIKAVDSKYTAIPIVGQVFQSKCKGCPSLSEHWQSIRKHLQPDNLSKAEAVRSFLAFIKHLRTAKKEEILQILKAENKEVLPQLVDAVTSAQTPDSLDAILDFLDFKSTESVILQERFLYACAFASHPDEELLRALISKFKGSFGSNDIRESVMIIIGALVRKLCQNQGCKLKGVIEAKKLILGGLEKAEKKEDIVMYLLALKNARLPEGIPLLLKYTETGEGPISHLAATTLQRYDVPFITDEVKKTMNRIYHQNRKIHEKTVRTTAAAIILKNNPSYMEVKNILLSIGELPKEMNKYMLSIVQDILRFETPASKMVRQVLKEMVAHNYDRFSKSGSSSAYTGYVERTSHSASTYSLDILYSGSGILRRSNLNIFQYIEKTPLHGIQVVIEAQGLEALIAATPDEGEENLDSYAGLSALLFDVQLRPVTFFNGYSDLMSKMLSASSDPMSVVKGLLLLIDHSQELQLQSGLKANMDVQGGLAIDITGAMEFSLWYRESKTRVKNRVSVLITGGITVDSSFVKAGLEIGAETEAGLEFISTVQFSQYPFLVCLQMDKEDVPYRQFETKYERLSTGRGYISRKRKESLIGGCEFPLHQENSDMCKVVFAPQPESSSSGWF
T1 sequence (P05307 21-510 partner): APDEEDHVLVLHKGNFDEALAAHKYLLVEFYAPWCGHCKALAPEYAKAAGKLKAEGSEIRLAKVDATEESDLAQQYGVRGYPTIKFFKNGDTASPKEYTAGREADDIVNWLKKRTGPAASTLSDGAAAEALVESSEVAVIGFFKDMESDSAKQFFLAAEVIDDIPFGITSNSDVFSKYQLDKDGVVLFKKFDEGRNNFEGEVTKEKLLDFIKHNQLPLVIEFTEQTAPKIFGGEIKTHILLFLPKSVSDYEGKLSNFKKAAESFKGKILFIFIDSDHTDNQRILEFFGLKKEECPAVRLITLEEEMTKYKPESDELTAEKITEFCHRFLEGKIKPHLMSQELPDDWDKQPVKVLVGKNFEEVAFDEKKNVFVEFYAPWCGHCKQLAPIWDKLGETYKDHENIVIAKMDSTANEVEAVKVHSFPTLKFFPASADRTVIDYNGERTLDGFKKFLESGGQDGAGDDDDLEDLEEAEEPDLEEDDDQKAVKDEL
As to the kind of experiment: Effect of compounds on binding of LDL to immobilized MTP (ELISA). Set-up: species or system human. The protocol:
(§1) Studies were performed to determine whether apoB/MTP binding was required for secretion of apoB-containing lipoproteins. Several compounds were screened. In the absence of any test compound, 15.47 fmol of low density lipoproteins (LDL)which contain ApoB was bound to immobilized MTP. Two test compounds, AGI-3 and AGI-S17, inhibited 70 to 90% of the binding at 40-50 μM concentrations. […] The effect of these same compounds on MTP's lipid transfer activity was also evaluated. BMS-200150 inhibited triglyceride transfer activity by 60% at concentrations in the range of 20 to 50 μM. AGI-3 inhibited only 20-30% of the activity at these same concentrations.
ELISA plates coated in triplicate with purified heterodimeric MTP (1 μg/well) were incubated with human LDL (1 μg/well) in the presence of indicated concentrations of various compounds. Microtiter wells were washed three times with PBS-Tween and apoB bound was quantitated by a sandwich ELISA (Hussain, M. M. et al. 1995 Arterioscl. Thronb. Vasc. Biol. 15:485-494). In parallel, a standard curve for apoB was generated by coating wells with a monoclonal antibody, 1D1, and incubating with different concentrations of LDL (0-14 ng/well) as previously described (Hussain, M. M. et al. 1995 Arterioscl. Thromb . Vasc. Biol. 15:485-494).
On the technique in general: ELISA stands for enzyme-linked immunosorbent assay.

The target in test [2] is T2, MTP (Bos taurus, UniProt P55156).
T2 sequence (P55156 12-887): T1 sequence (P55156 12-887)
T2 sequence (P05307 21-510 partner): T1 sequence (P05307 21-510 partner)
As to the kind of experiment: MTP triglyceride transfer activity. Particulars: 20 to 50 μM. Format: biochemical. As to the method: as §1

The target in test [3] is T1, LDL/MTP binding. As to the kind of experiment: Effect of lipid vesicles on binding of LDL to immobilized MTP. Particulars: for effect of inclusion in PC vesicles on PC-stimulated binding of LDL to MTP: added to PC vesicles. The protocol:
The effect of lipids on the binding of MTP with apoB was also examined. Phosphatidylcholine (PC) and sphingomyelin increased the interactions by 2 and 1.5 times respectively. In similar studies, PC vesicles at a concentration of 2.4 mM increased the binding of LDL to MTP by 2 to 4 times. As a control, the effect of phospholipids on the binding of LDL to the monoclonal antibody 1D1 and polyclonal antibodies was studied. 1D1 binds to a portion of the MTP specific binding site on apoB. This antibody also recognizes all subclasses of VLDL and LDL, as well as delipidated apoB. […] The effect of PC vesicles on the interaction of apoB to polyclonal antibodies was studied by incubating immobilized LDL with the antibodies both in the presence and absence of PC. PC vesicles had no effect on binding.
To study the effect of triglycerides (TG) on apoB/MTP specific binding, PC vesicles or emulsions containing two different concentrations of TG were prepared and their effect on LDL binding to MTP was compared with those of PC vesicles with no TG.
The effect of different lipids was studied in more detail using PC-based vesicles (Table 3). Again, PC vesicles increased the binding of LDL to MTP by 3-fold.
Required amounts of lipids in chloroform were added to a glass vial and the solvent was evaporated under nitrogen gas. A calculated amount of the buffer (15 mM Tris-HCl, 1 mM EDTA, 0.02% sodium azide, pH 7.4) was added, and the contents were sonicated (setting 5, output 50-60%) on ice until the solution was mostly clear. The vesicles were then centrifuged at 3500 rpm for 15 minutes, 4° C., and the supernatant used to assay the effect of vesicles on binding.
LDL (20 nM) was incubated with immobilized MTP (1 μg/ml) in the presence and absence of different concentrations of PC or sphingomyelin vesicles for 2 hours at 37° C. and the amount of LDL bound quantitated. The amount of LDL bound in the absence of lipid vesicles was used as 100%. Parallel experiments were also performed wherein LDL (78 pM) was incubated with immobilized monoclonal antibody, 1D1, instead of MTP. LDL (20 nM) was also incubated with immobilized MTP in the presence of different concentrations of PC, PC/TG (molar ratio 400:1) vesicles, or PC/TG dispersions (molar ratio 1:1) for 2 hours at 37° C., and the amount of apoB bound was quantitated by ELISA.

Test [4] concerns the target T3, immobilized LDL (Homo sapiens, UniProt P04114). The test is described as follows: Binding of apoA-I and apoA-I/lipid complexes to immobilized LDL. As to the method: The binding of apoA-I and apoA-I/lipid complexes to immobilized LDL was examined. ApoA-I incubated with or without lipid vesicles was subjected to ultracentrifugation and apoA-I/lipid complexes were isolated. Binding of apoA-I and apoA-I/lipid complexes to immobilized LDL was then examined.
Target sequence in this assay (P04114 28-4563): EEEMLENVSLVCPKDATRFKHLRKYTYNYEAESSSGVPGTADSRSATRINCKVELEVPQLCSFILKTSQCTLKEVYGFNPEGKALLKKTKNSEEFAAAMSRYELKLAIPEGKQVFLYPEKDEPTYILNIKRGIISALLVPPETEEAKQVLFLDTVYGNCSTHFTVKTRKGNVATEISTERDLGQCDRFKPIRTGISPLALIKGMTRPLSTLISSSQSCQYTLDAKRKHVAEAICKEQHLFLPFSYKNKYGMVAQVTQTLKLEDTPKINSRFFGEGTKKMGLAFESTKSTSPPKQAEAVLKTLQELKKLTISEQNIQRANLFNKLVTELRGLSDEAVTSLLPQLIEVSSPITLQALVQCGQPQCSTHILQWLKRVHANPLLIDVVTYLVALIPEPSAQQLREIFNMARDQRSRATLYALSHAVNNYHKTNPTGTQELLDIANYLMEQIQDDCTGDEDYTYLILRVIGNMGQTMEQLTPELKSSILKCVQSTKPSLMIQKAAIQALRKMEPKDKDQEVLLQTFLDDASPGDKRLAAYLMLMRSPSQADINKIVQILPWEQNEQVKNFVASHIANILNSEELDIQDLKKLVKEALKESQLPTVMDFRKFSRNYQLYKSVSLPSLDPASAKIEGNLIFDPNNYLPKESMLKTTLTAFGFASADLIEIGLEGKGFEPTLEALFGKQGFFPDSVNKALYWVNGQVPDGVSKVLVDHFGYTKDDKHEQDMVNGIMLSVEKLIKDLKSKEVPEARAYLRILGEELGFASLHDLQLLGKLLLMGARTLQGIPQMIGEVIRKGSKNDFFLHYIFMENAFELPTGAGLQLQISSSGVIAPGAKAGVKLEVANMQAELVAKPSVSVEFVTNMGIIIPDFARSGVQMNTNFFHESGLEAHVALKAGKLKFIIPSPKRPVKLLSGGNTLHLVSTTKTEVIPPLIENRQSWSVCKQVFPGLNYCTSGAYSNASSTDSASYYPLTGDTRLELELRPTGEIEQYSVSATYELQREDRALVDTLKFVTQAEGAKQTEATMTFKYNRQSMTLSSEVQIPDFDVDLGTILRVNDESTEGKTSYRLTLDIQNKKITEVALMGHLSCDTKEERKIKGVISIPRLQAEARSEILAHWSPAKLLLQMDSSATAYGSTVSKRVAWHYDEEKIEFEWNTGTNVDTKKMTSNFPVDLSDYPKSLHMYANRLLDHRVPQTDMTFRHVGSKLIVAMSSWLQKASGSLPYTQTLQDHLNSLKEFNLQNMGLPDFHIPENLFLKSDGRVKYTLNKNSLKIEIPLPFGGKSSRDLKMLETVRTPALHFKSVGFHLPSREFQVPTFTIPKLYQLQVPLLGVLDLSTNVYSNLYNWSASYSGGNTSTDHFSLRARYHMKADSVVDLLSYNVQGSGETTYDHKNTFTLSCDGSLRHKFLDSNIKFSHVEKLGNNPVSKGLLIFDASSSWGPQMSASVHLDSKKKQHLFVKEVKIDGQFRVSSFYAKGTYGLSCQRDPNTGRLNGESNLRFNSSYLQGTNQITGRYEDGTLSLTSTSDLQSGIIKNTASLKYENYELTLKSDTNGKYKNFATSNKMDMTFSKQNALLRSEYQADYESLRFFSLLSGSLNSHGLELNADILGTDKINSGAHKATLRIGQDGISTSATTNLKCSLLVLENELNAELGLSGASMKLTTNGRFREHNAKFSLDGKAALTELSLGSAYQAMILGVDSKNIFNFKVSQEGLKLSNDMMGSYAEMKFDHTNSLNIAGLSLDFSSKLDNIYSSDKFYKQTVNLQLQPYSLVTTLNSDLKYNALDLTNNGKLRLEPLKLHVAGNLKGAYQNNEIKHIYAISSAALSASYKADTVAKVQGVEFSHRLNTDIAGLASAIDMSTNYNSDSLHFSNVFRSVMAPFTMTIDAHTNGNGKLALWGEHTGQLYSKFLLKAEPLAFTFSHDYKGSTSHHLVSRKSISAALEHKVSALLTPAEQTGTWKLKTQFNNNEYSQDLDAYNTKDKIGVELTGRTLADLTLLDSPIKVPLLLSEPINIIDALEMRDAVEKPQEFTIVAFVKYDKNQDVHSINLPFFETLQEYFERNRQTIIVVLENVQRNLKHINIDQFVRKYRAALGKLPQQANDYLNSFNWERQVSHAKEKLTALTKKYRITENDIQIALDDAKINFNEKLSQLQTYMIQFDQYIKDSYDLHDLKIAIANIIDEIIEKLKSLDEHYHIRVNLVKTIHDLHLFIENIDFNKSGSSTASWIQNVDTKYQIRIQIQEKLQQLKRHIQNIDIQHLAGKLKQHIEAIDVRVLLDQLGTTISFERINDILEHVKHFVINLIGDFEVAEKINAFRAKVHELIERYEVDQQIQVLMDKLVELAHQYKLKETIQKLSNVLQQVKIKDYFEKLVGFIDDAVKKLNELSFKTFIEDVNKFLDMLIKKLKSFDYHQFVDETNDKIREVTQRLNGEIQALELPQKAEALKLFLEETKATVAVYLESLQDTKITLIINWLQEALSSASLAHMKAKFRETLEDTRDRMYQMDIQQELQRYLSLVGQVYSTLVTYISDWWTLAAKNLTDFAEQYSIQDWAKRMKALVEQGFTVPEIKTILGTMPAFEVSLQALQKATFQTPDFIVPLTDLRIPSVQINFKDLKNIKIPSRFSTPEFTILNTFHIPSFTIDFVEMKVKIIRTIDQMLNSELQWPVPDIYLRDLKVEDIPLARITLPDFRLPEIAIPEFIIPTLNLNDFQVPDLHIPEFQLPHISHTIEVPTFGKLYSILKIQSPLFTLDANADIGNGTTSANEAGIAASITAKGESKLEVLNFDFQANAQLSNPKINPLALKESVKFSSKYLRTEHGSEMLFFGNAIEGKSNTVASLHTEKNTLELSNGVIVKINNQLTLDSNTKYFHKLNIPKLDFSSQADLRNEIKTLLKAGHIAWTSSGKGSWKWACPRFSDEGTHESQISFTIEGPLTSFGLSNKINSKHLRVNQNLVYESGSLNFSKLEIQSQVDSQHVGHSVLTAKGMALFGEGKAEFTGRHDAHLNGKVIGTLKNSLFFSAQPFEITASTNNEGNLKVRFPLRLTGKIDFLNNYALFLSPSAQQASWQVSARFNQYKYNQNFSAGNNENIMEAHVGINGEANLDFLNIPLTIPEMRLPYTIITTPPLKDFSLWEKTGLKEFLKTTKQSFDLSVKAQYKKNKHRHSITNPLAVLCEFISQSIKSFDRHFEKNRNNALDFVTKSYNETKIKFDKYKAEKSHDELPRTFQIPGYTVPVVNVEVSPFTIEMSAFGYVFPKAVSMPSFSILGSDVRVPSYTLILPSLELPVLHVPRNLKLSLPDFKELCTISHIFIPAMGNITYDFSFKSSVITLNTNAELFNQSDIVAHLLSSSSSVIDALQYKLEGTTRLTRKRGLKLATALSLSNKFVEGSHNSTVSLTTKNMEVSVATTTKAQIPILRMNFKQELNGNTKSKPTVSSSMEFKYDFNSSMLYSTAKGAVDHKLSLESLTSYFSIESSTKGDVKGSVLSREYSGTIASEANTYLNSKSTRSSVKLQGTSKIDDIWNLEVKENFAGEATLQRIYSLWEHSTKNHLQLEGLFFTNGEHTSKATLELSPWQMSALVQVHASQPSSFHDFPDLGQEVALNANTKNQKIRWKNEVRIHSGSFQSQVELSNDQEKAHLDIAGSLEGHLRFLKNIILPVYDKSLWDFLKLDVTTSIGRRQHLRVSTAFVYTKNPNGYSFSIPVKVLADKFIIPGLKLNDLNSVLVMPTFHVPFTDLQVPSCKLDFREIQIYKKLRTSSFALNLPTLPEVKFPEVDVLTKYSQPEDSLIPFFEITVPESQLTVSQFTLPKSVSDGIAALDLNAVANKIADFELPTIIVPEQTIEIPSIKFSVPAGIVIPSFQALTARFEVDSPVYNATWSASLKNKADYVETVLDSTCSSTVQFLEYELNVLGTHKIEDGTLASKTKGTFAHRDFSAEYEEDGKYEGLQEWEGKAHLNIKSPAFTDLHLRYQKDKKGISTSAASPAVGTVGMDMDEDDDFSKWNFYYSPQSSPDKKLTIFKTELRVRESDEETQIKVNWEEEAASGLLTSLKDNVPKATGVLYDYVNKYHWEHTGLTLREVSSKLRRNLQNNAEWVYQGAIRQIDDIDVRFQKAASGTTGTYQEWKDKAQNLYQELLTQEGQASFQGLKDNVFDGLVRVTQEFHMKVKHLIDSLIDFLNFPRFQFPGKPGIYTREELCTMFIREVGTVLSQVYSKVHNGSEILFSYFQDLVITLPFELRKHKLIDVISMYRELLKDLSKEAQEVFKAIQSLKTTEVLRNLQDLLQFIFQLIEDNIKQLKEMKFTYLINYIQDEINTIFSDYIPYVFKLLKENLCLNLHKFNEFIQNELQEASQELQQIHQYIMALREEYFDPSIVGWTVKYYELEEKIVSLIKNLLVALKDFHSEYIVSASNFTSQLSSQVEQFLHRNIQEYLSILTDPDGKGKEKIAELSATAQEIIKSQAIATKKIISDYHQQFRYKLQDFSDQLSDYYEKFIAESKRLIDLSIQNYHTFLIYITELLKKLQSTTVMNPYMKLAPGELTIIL

Test [5] addresses T3, immobilized LDL. The test is described as follows: Binding of 125I-MTP / MTP fractions to immobilized LDL. The protocol:
The effect of phospholipids on the kinetic parameters of apoB-MTP binding was examined. […] No significant binding of LDL to MTP could be observed at low concentrations (≦3 nM) in the absence of vesicles. However, the effect of vesicles was significant at ≦12.5 nM of LDL. […] In four other experiments, decreases in Kd ranged between 1.5- to 3-fold. The effect of phospholipid vesicles on the binding of ^125I-MTP to immobilized LDL was also examined.
To study the binding of lipid associated MTP with LDL, peaks A, B, and C were pooled, dialyzed and then used to study binding to immobilized LDL. The binding of lipid-poor MTP (peak B), which might have acquired few lipid molecules during its incubation with lipid vesicles, to LDL was increased (70%, P<0.005) compared to the binding of MTP not incubated with lipids (peak A). […] These studies indicate that lipid-associated MTP binds better to LDL as compared to lipid-poor and lipid-free MTP. It is believed that MTP forms stable complexes with phospholipid vesicles and these MTP/lipid complexes have higher affinity for apoB.
Target sequence in this assay (P04114 28-4563, one chain of several): as the sequence (P04114 28-4563) above

Take `O=C1c2ccccc2CN1C1CCN(CCC(c2ccccc2)c2ccccc2)CC1` [BMS-200150]: the “effect on LDL/MTP binding” value in test [1] is “did not effect LDL/MTP binding”. Besides, the “inhibition of triglyceride transfer activity” value in test [2] was found to be 60%.

`CC(C)CCC[C@@H](C)[C@H]1CC[C@H]2[C@@H]3CC=C4C[C@@H](O)CC[C@]4(C)[C@H]3CC[C@]12C` [cholesterol]: in test [3], the “effect of inclusion in PC vesicles on PC-stimulated binding of LDL to MTP” value (shortened to “effect of inclusion in PC vesicles”) was “no additional effect”.

As for “apoA-I/lipid complexes: apoA-I incubated with lipid vesicles, complexes isolated by ultracentrifugation”, in test [4], the “binding to immobilized LDL compared to free apoA-I” value is given as “significantly less”.

Regarding “peak B: lipid-poor MTP fraction recovered after incubation with PC vesicles, fractions 21-24”, the “increase of binding to immobilized LDL compared to MTP not incubated with lipids (peak A)” value in test [5] (P<0.005) turned out to be 70%.

Regarding “peak C: MTP associated with lipid vesicles, fractions 3-9”, the “amount bound to LDL compared to MTP alone” value in test [5] was “three-fold higher”.

As to phosphatidyl inositol [PI], the “effect of inclusion in PC vesicles” value in test [3] is reported as “significantly decreased”.

On to phosphatidyl serine [PS], for which the “effect of inclusion in PC vesicles” value in test [3] is on record as “significantly decreased”.

Regarding triglycerides [TG], in test [3] (PC vesicles with or without TG), the “effect on LDL binding to MTP” value is reported as “no additional effect”.
